Literature values as cited in US20110189299A1, “PHARMACEUTICAL COMPOSITION CONTAINING SURFACE-COATED MICROPARTICLES” (NITTO DENKO CORPORATION, priority 2008, published 2011).

pKa: 9.5
Compound: CN(C)CCc1c[nH]c2ccc(C[C@H]3COC(=O)N3)cc12 [Zolmitriptan]
